The term melting point denotes the temperature, or range, at which the solid turns liquid.

These results are taken from patent US8084449B2, “Dual pharmacophores—PDE4-muscarinic antagonistics” (Glaxo Group Limited, priority 2008, dated 2011).

In data set [1] the test system is human M1, M2 and M3 ACh receptors stably expressed in CHO cells. Kind of data set: Calcium mobilization (FLIPR) IC50 determination for antagonists: inhibition of ACh induced muscarinic receptor activation. The data set is classed as cell-based. The conditions noted are these: EC80 concentration of ACh, active if IC50 of between 33 uM and 10 nM or less, receptor subtype not specified for the statement. The source says: Studies to determine the effectiveness of antagonists to cause blockade of functional intracellular calcium fluxes following agonist (ACh) treatment of cloned human receptors. This system is used for characterizations of antagonist-receptor interactions using four distinct variations of the FLIPR methodology: (a) potency: IC50 determination, (b) potency: pA2 determination, (c) reversibility of antagonist-receptor interaction, or (d) confirmation of no functional agonist activity.
Cell Source The human M1-M3 receptors are cloned and stably expressed in Chinese Hamster Ovary (CHO) cells. The M2 receptors are co-expressed with the chimeric G protein, Gqi5.
Method of Culture: CHO-M1, CHO-Gqi5-M2 and CHO-M3 cells are cultured to confluence at 37° C. in a humidified incubator with 5% CO2/95% air. […] The emitted fluorescence from all 96 wells is measured simultaneously using a cooled CCD camera. […]
Cell plating: A microtiter plate based calcium mobilization FLIPR (Fluorometric Imaging Plate Reader, Molecular Devices, Sunnyvale Calif., [Schroeder K S, Neagle, B D. FLIPR: a new instrument for accurate, high throughput optical screening. J. Biomol. Screen. 1996; 1:75.]) assay is used for the functional characterization of compounds against M1, M2 (w/Gqi5) and M3 ACh receptors stably expressed in CHO cells. […]

`NC(=O)c1ccc(Cl)c(Br)c1` came in with a melting point of 146 to 147 °C.

Turning to `CCc1nc2c(cnn2CC)c(NC2CCOCC2)c1CNC(=O)c1cccc(C(=O)NCc2ccc(OC)c(-c3cccc(CN4CCN[C@@H](C)C4)c3)c2)n1` [Example 157, N-{[1,6-Diethyl-4-(tetrahydro-2H-pyran-4-ylamino)-1H-pyrazolo[3,4-b]pyridin-5-yl]methyl}-N′-[(6-(methyloxy)-3′-{[(3S)-3-methyl-1-piperazinyl]methyl}-3-biphenylyl)methyl]-2,6-pyridinedicarboxamide], in data set [1], the “IC50 (compound pretreatment concentration which inhibits 50% of the ACh induced response), activity rating” value is “most active”.
